Patent US8592174B2, “Peptidase substrates” (bioMérieux, S.A., priority 2009, dated 2013)

What was measured:
Type in all cases: cell-based
[1] = tested on: Acinetobacter baumannii 0604029; assay: Peptidase detection on Columbia medium (Example 5); conditions: 75 mg/l, 48 h 37° C. As to Coloration strength: key: +++: good growth/high coloration strength; ++: medium growth/medium coloration strength; +: weak growth/weak coloration strength; −: no growth/no coloration.
Experimental: (§1) After homogenization, the media were distributed into Petri dishes 55 mm in diameter. A medium acting as a growth control (Columbia) and denoted C was also poured.
(§2) Twenty-two strains of microorganisms were inoculated with a 10 μl calibrated loop according to the three-quadrant streaking method using bacterial suspensions at 0.5 McFarland.

[2] = tested on: Bacillus subtilis 0204038; assay: Peptidase detection on Columbia medium (Example 5); conditions: 75 mg/l, 48 h 37° C.
Experimental: as §1, §2

[3] = tested on: Burkholderia cepacia 7507032; assay: Peptidase detection on Columbia medium (Example 5); conditions: 75 mg/l, 48 h 37° C.
Experimental: as §1, §2

[4] = tested on: Candida albicans 0801025; assay: Peptidase detection on Columbia medium (Example 5); conditions: 75 mg/l, 48 h 37° C. Also: key: +++: good growth/high coloration strength; ++: medium growth/medium coloration strength; +: weak growth/weak coloration strength; −: no growth/no coloration.
Experimental: as §1, §2

[5] = tested on: Candida glabrata 0408083; assay: Peptidase detection on Columbia medium (Example 5); conditions: 75 mg/l, 48 h 37° C. Also: key: +++: good growth/high coloration strength; ++: medium growth/medium coloration strength; +: weak growth/weak coloration strength; −: no growth/no coloration.
Experimental: as §1, §2

[6] = tested on: Citrobacter freundii 0006197; assay: Peptidase detection on Columbia medium (Example 5); conditions: 75 mg/l, 48 h 37° C.
Experimental: as §1, §2

[7] = tested on: Enterobacter cloacae 0604040; assay: Peptidase detection on Columbia medium (Example 5); conditions: 75 mg/l, 48 h 37° C.
Experimental: as §1, §2

[8] = tested on: Enterococcus faecalis 0008192; assay: Peptidase detection on Columbia medium (Example 5); conditions: 75 mg/l, 48 h 37° C.
Experimental: as §1, §2

[9] = tested on: Enterococcus faecium 0610021; assay: Peptidase detection on Columbia medium (Example 5); conditions: 75 mg/l, 48 h 37° C.
Experimental: as §1, §2

[10] = tested on: Escherichia coli 0002005; assay: Peptidase detection on Columbia medium (Example 5); conditions: 75 mg/l, 48 h 37° C.
Experimental: as §1, §2

[11] = tested on: Klebsiella pneumoniae 0008009; assay: Peptidase detection on Columbia medium (Example 5); conditions: 75 mg/l, 48 h 37° C.
Experimental: as §1, §2

[12] = tested on: Listeria monocytogenes 8812049; assay: Peptidase detection on Columbia medium (Example 5); conditions: 75 mg/l, 48 h 37° C.
Experimental: as §1, §2

[13] = tested on: MRSA 0303033; assay: Peptidase detection on Columbia medium (Example 5); conditions: 75 mg/l, 48 h 37° C.
Experimental: as §1, §2

[14] = tested on: Morganella morganii 9207053; assay: Peptidase detection on Columbia medium (Example 5); conditions: 75 mg/l, 48 h 37° C.
Experimental: as §1, §2

[15] = tested on: Providencia rettgeri 0706064; assay: Peptidase detection on Columbia medium (Example 5); conditions: 75 mg/l, 48 h 37° C.
Experimental: as §1, §2

[16] = tested on: Pseudomonas aeruginosa 0001001; assay: Peptidase detection on Columbia medium (Example 5); conditions: 75 mg/l, 48 h 37° C.
Experimental: as §1, §2

[17] = tested on: Salmonella ser. Typhimurium 0801029; assay: Peptidase detection on Columbia medium (Example 5); conditions: 75 mg/l, 48 h 37° C. Also: key: +++: good growth/high coloration strength; ++: medium growth/medium coloration strength; +: weak growth/weak coloration strength; −: no growth/no coloration.
Experimental: as §1, §2

[18] = tested on: Serratia marcescens 7303004; assay: Peptidase detection on Columbia medium (Example 5); conditions: 75 mg/l, 48 h 37° C.
Experimental: as §1, §2

[19] = tested on: Staphylococcus aureus 7811049; assay: Peptidase detection on Columbia medium (Example 5); conditions: 75 mg/l, 48 h 37° C.
Experimental: as §1, §2

[20] = tested on: Staphylococcus epidermidis 0203050; assay: Peptidase detection on Columbia medium (Example 5); conditions: 75 mg/l, 48 h 37° C.
Experimental: as §1, §2

[21] = tested on: Streptococcus pyogenes 9806380; assay: Peptidase detection on Columbia medium (Example 5); conditions: 75 mg/l, 48 h 37° C.
Experimental: as §1, §2

[22] = tested on: Yersinia enterocolitica 7605019; assay: Peptidase detection on Columbia medium (Example 5); conditions: 75 mg/l, 48 h 37° C.
Experimental: as §1, §2

[23] = tested on: Pseudomonas aeruginosa NCTC 10 662; assay: Peptidase detection on Columbia medium (Example 2); parameters: key to Growth: NG: No growth; 0.5: weak growth; 1: moderate growth; 2: good growth; conditions: 40 mg in 400 ml Columbia; 24 h 37° C.
Experimental: (§3) The 6 media were distributed into Petri dishes 90 mm in diameter, in a proportion of 20 ml per dish.
(§4) Seventeen strains of microorganisms stemming from collections and belonging to various species of bacteria and yeasts are inoculated in spots of approximately 10 000 colony-forming units.
(§5) The media are incubated for 24 hours at 37° C., and then the colonies formed are examined visually, with or without the addition of acid and under a UV lamp at 365 nm.

[24] = tested on: Bacillus subtilis NCTC 9 372; assay: Peptidase detection on Columbia medium (Example 2); parameters: key to Growth: NG: No growth; 0.5: weak growth; 1: moderate growth; 2: good growth; key to Fluo. / Color / Color post-acid.: —: no color; conditions: 40 mg in 400 ml Columbia; 24 h 37° C.
Experimental: as §3, §4, §5

[25] = tested on: Enterococcus faecalis NCTC 775; assay: Peptidase detection on Columbia medium (Example 2); parameters: key to Growth: NG: No growth; 0.5: weak growth; 1: moderate growth; 2: good growth; conditions: 40 mg in 400 ml Columbia; 24 h 37° C.
Experimental: as §3, §4, §5

[26] = tested on: Staphylococcus aureus NCTC 6 571; assay: Peptidase detection on Columbia medium (Example 2); parameters: key to Growth: NG: No growth; 0.5: weak growth; 1: moderate growth; 2: good growth; key to Fluo. / Color / Color post-acid.: —: no color; conditions: 40 mg in 400 ml Columbia; 24 h 37° C.
Experimental: as §3, §4, §5

[27] = tested on: Streptococcus pyogenes NCTC 8 306; assay: Peptidase detection on Columbia medium (Example 2); parameters: key to Growth: NG: No growth; 0.5: weak growth; 1: moderate growth; 2: good growth; conditions: 40 mg in 400 ml Columbia; 24 h 37° C.
Experimental: as §3, §4, §5

[28] = tested on: Listeria monocytogenes NCTC 11 994; assay: Peptidase detection on Columbia medium (Example 2); parameters: key to Growth: NG: No growth; 0.5: weak growth; 1: moderate growth; 2: good growth; key to Fluo. / Color / Color post-acid.: —: no color; conditions: 40 mg in 400 ml Columbia; 24 h 37° C.
Experimental: as §3, §4, §5

C[C@H](N)C(=O)Nc1ccc(C=Cc2cc[n+](C)c3ccccc23)cc1.Cl.[Cl-] [L-alanyl-4-(4′-amidostyryl)-N-methylquinolinium (dichloride)]
−: Color [3] | Coloration strength [3] | Color [4] | Coloration strength [4] | Color [5] | Coloration strength [5] | Color [9] | Coloration strength [9] | Color [17] | Coloration strength [17]
orange: Color [1] | Color [2] | Color [6] | Color [7] | Color [8] | Color [10] | Color [11] | Color [12] | Color [13] | Color [14] | Color [15] | Color [16] | Color [18] | Color [19] | Color [20] | Color [21] | Color [22]
+: Coloration strength [2] | Growth ([5]; control C: +) | Coloration strength [7] | Coloration strength [8] | Growth ([8]; control C: +) | Growth ([9]; control C: +) | Growth ([12]; control C: +) | Coloration strength [19] | Coloration strength [20] | Coloration strength [21] | Growth ([21]; control C: +) | Growth ([22]; control C: +)
++: Coloration strength [1] | Growth ([1]; control C: ++) | Growth ([2]; control C: ++) | Growth ([3]; control C: ++) | Growth ([4]; control C: ++) | Coloration strength [6] | Growth ([6]; control C: ++) | Growth ([7]; control C: ++) | Coloration strength [10] | Growth ([10]; control C: ++) | Coloration strength [11] | Growth ([11]; control C: ++) | Coloration strength [12] | Coloration strength [13] | Growth ([13]; control C: ++) | Coloration strength [14] | Growth ([14]; control C: ++) | Coloration strength [15] | Growth ([15]; control C: ++) | Coloration strength [16] | Growth ([16]; control C: ++) | Growth ([17]; control C: ++) | Coloration strength [18] | Growth ([18]; control C: ++) | Growth ([19]; control C: ++) | Growth ([20]; control C: ++) | Coloration strength [22]

C[C@H](N)C(=O)N[C@@H](C)C(=O)N[C@@H](C)C(=O)Nc1ccc(C=Cc2cc[n+](C)c3ccccc23)cc1.Cl.[Cl-] [Tri-Ala-ASQM^+, L-alanyl-L-alanyl-L-alanyl-4-(4′-amidostyryl)-N-methylquinolinium (dichloride)]
2: Growth [23] | Growth [24] | Growth [25] | Growth [26] | Growth [27] | Growth [28]
—: Color [24] | Color [26] | Color [28]
Orange: Color [23]
